Results taken from PMC6858373 (Scientific Reports, 2019).
Where two headings read alike, the source gives them in different places.

Columns and labels:
[1] = target: full-length P. pyralis luciferase (Photinus pyralis, UniProt P08659, K549A/L550V/N119G/N50D/S548I); format: cell-based
[2] = target: T1, FGF14:Nav1.6 C-tail complex (Homo sapiens, UniProt Q92915+Q9UQD0); assay: Split-luciferase complementation assay (LCA) in Clone V double stable HEK293 cells; format: cell-based; settings: for Z-score (LCA primary screening): 30 µM, average of primary screening (n = 2), vs on-plate 0.3% DMSO; for Split Luciferase Assay % Lum Set 1 / Split Luciferase Assay %Lum Set 2: normalized to on-plate 0.3% DMSO controls (n=16 per plate); for IMin (% Luminescence): antagonists, normalized to DMSO; for Split Luciferase Assay %Lum Avg: average of Set 1 and Set 2, normalized to 0.3% DMSO controls
T1 construct: polymerase chain reaction (PCR) amplification of the FGF14 open reading frame (nt 1–855); C-terminal fragment of Nav1.6 (amino acids 1763–1976) fused with CD4ΔC-tail (amino acids 1–395); expressed in transfected cells
T1 sequence (Q92915 1-252 isoform Q92915-2): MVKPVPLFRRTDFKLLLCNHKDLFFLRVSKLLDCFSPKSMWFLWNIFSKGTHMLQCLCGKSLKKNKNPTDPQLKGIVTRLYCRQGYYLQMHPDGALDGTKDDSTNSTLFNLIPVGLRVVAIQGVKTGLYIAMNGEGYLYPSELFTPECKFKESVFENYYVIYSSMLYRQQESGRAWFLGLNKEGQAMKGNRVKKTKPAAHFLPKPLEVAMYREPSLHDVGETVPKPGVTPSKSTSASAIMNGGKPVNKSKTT
T1 sequence (Q9UQD0 1763-1976 limits assumed): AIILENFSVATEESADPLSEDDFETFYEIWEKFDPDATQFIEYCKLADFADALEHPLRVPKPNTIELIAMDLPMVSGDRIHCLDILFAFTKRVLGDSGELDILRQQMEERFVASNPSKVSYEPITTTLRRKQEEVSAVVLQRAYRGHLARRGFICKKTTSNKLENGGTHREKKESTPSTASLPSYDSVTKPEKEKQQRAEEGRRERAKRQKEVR

[3] = system: Clone V cells
[4] = CC_NCI screening, normalized to on-plate 0.3% DMSO controls
[5] = CC_NCI screening, biological replicate Set 1, normalized to on-plate 0.3% DMSO controls
[6] = CC_NCI screening, biological replicate Set 1
[7] = estimated, 8-point dose response 0.25-30 µM, n = 4 per concentration, library compounds, read-out: IC50
[8] = CC_NCI screening, full-length luciferase counter-screen luminescence, normalized to on-plate 0.3% DMSO controls
[9] = CC_NCI screening, full-length luciferase counter-screen, normalized to on-plate 0.3% DMSO controls
[10] = CC_NCI screening, LCA luminescence, biological replicate Set 1
[11] = CC_NCI screening, LCA luminescence, biological replicate Set 2
[12] = CC_NCI screening, LCA, biological replicate Set 1, normalized to on-plate 0.3% DMSO controls
[13] = CC_NCI screening, LCA, biological replicate Set 2, normalized to on-plate 0.3% DMSO controls
[14] = CC_NCI screening, biological replicate Set 2, normalized to on-plate 0.3% DMSO controls
[15] = CC_NCI screening, biological replicate Set 2

Chain of full-length P. pyralis luciferase (P08659 whole entry N50D/N119G/S548I/K549A/L550V, looked up): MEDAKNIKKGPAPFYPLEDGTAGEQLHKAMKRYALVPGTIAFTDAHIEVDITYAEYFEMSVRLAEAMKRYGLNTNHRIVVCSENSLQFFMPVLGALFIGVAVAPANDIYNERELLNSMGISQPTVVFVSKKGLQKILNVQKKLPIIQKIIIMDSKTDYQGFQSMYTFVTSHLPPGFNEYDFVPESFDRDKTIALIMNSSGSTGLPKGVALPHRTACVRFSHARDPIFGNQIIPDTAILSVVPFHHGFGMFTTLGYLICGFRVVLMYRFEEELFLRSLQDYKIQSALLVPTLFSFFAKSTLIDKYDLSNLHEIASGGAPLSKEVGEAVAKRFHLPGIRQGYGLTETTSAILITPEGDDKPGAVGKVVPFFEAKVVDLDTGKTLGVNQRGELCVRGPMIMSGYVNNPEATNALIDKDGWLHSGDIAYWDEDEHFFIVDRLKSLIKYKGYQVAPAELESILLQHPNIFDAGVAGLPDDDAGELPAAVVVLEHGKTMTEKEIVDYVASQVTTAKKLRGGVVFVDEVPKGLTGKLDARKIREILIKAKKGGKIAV

| Compound | Luciferase Assay % Lum [1, 8] [%] | Luciferase Assay Z-score [1, 9] | Split Luciferase Assay % Lum Set 1 [2, 10] [%] | Split Luciferase Assay %Lum Set 2 [2, 11] [%] | Split Luciferase Assay Z-score Set 1 [2, 12] | Split Luciferase Assay Z-score Set 2 [2, 13] | Split Luciferase Assay %Lum Avg ([2]; CC_NCI screening) [%] | Toxicity Assay % Fluor ([3]; human, 16 h, 30 µM) [%] | Toxicity Assay Z-score ([3]; human, 16 h, 30 µM) | other results |
| --- | --- | --- | --- | --- | --- | --- | --- | --- | --- | --- |
| Cc1ccc([N+](=O)[O-])cc1S(=O)(=O)N(C)/N=C/c1cnc2ccc(Br)cn12 [PIK 75, reference compound] |  |  |  |  |  |  |  |  |  | Luciferase Assay % Lum (full-length luciferase counter-screen) [1, 4]: 87.68%; Luciferase Assay Z-score (full-length luciferase counter-screen) [1, 4]: -1.58; Z-score (LCA primary screening) ([2]; 384-well): −5.01; Split Luciferase Assay Z-score Set 1 [2, 5]: -6.21; Split Luciferase Assay % Lum Set 1 [2, 6]: 23.16%; IMin (% Luminescence) ([2]; Clone V cells, 384-well): 38.11 % Luminescence; Split Luciferase Assay %Lum Avg [2]: 38.11%; IC50 [2, 7]: 1.63 µM; Toxicity Assay % Fluor (CTB cell viability fluorescence) [3]: 101.60%; Toxicity Assay Z-score (CTB cell viability) [3]: 0.22 |
| Cc1cc(N2CCOCC2)cc2[nH]c(-c3c(NC[C@@H](O)c4cccc(Cl)c4)cc[nH]c3=O)nc12 [BMS-536924] | 93.73 | -0.80 | 56.86 | 40.57 | -3.49 | -4.84 | 48.71 |  |  | Toxicity Assay % Fluor [3]: 86.04%; Toxicity Assay Z-score [3]: -1.95 |
| C=CC(=O)Nc1cc2c(Nc3ccc(F)c(Cl)c3)ncnc2cc1OCCCN1CCOCC1 [CANERTINIB] | 50.65 | -6.32 | 28.59 | 34.33 | -5.77 | -5.34 | 31.46 | 84.09 | -2.22 |  |
| N#Cc1c(O)c2c(-c3ccc(-c4ccccc4O)cc3)csc2[nH]c1=O [Compound A-769662] |  |  |  |  |  |  |  |  |  | Luciferase Assay % Lum (full-length luciferase counter-screen) [1, 4]: 79.85%; Luciferase Assay Z-score (full-length luciferase counter-screen) [1, 4]: -2.58; Split Luciferase Assay Z-score Set 1 [2, 5]: 1.52; Split Luciferase Assay % Lum Set 1 [2, 6]: 118.82%; Split Luciferase Assay Z-score Set 2 [2, 14]: 1.01; Split Luciferase Assay %Lum Set 2 [2, 15]: 112.35%; Split Luciferase Assay %Lum Avg [2]: 115.59%; Toxicity Assay % Fluor (CTB cell viability fluorescence) [3]: 107.48%; Toxicity Assay Z-score (CTB cell viability) [3]: 1.05 |
| CN(C)S(=O)(=O)c1ccc2c(c1)/C(=C/c1cc3c([nH]1)CCCC3)C(=O)N2 [SU 6656] | 101.36 | 0.17 | 128.60 | 106.11 | 2.31 | 0.50 | 117.36 | 105.95 | 0.83 |  |
| CN(NC(=O)CC(=O)NN(C)C(=S)c1ccccc1)C(=S)c1ccccc1 [ELESCLOMOL] | 99.01 | -0.13 | 30.77 | 35.37 | -5.60 | -5.26 | 33.07 | 74.49 | -3.57 |  |
| O=C(c1ccc(OCCN2CCCCC2)cc1)c1c(-c2ccc(O)cc2)sc2cc(O)ccc12 [Raloxifene] | 91.29 | -1.12 | 56.86 | 52.02 | -3.49 | -3.90 | 54.44 | 90.90 | -1.27 |  |
| CC(C)(C#N)c1cc(Cn2cncn2)cc(C(C)(C)C#N)c1 [Anastrozole] | 100.06 | 0.01 | 89.47 | 99.87 | -0.85 | -0.01 | 94.67 | 95.38 | -0.65 |  |
| Nc1ccccc1NC(=O)c1ccc(CNC(=O)OCc2cccnc2)cc1 [MS-275] |  |  |  |  |  |  |  |  |  | Luciferase Assay % Lum (full-length luciferase counter-screen) [1, 4]: 107.21%; Luciferase Assay Z-score (full-length luciferase counter-screen) [1, 4]: 0.92; Split Luciferase Assay Z-score Set 1 [2, 5]: -2.96; Split Luciferase Assay % Lum Set 1 [2, 6]: 63.38%; Split Luciferase Assay Z-score Set 2 [2, 14]: -2.38; Split Luciferase Assay %Lum Set 2 [2, 15]: 70.74%; Split Luciferase Assay %Lum Avg [2]: 67.06%; Toxicity Assay % Fluor (CTB cell viability fluorescence) [3]: 101.17%; Toxicity Assay Z-score (CTB cell viability) [3]: 0.16 |
| COc1cc2c(Nc3ccc(NC(=O)c4ccccc4)cc3)ncnc2cc1OCCCN1CCOCC1 [ZM447439] |  |  |  |  |  |  |  |  |  | Luciferase Assay % Lum (full-length luciferase counter-screen) [1, 4]: 98.24%; Luciferase Assay Z-score (full-length luciferase counter-screen) [1, 4]: -0.23; Split Luciferase Assay Z-score Set 1 [2, 5]: 1.70; Split Luciferase Assay % Lum Set 1 [2, 6]: 120.99%; Split Luciferase Assay Z-score Set 2 [2, 14]: -1.70; Split Luciferase Assay %Lum Set 2 [2, 15]: 79.06%; Split Luciferase Assay %Lum Avg [2]: 100.03%; Toxicity Assay % Fluor (CTB cell viability fluorescence) [3]: 106.45%; Toxicity Assay Z-score (CTB cell viability) [3]: 0.90 |
| COC1=C2C[C@@H](C)C[C@H](OC)[C@H](O)[C@@H](C)/C=C(\C)[C@H](OC(N)=O)[C@@H](OC)/C=C\C=C(/C)C(=O)NC(=CC1=O)C2=O [GELDENAMYCIN] | 102.35 | 0.30 | 70.99 | 86.35 | -2.34 | -1.11 | 78.67 |  |  | Toxicity Assay % Fluor [3]: 94.70%; Toxicity Assay Z-score [3]: -0.74 |
| Cn1cc(C2=C(c3ccc(Cl)cc3Cl)C(=O)NC2=O)c2ccccc21 [SB 216763] | 100.07 | 0.01 | 88.38 | 106.11 | -0.94 | 0.50 | 97.25 | 101.41 | 0.20 |  |
| C[C@@H](N)[C@H]1CC[C@H](C(=O)Nc2ccncc2)CC1 [Compound Y-27632] | 95.76 | -0.54 | 76.42 | 74.90 | -1.91 | -2.04 | 75.66 |  |  | Toxicity Assay % Fluor [3]: 96.21%; Toxicity Assay Z-score [3]: -0.53 |
| COc1cc2ncnc(Nc3cccc(Br)c3)c2cc1OC [PD 153035] |  |  | 143.82 | 121.72 |  |  | 132.77 | 98.57 | -0.20 | Luciferase Assay % Lum [1]: 83.75%; Luciferase Assay Z-score [1]: -2.08; Split Luciferase Assay Z-score Set 1 [2]: 3.54; Split Luciferase Assay Z-score Set 2 [2]: 1.77 |
| O=S(=O)(NCCNC/C=C/c1ccc(Br)cc1)c1cccc2cnccc12 [H-89, reference compound] | 80.98 | -2.44 | 14.46 | 17.69 | -6.91 | -6.70 | 16.07 |  |  | Z-score (LCA primary screening) ([2]; 384-well): −6.81; dose-response behavior of repurchased compounds ([2]; 10-point dose response 0.25-50 µM, Clone V cells): purely inhibitory effects; IMin (% Luminescence) ([2]; Clone V cells, 384-well): 16.07 % Luminescence; action toward the FGF14:Nav1.6 C-tail interaction ([2]; dose-dependency validation using fresh compound samples): acted as antagonists; IC50 [2, 7]: 12.2 µM; IC50 ([2]; repurchased compounds, 10-point dose response 0.25-50 µM, n = 8 per concentration, Clone V cells, 384-well, read-out: in-cell IC50): 1.9 µM; Toxicity Assay % Fluor [3]: 91.80%; Toxicity Assay Z-score [3]: -1.15 |
| CCOC(=O)C1=C(N)Oc2ccc(Br)cc2C1C(C#N)C(=O)OCC (stereo not shown) [HA14-1] | 99.78 | -0.03 | 80.77 | 97.79 | -1.55 | -0.18 | 89.28 |  |  | Toxicity Assay % Fluor [3]: 102.67%; Toxicity Assay Z-score [3]: 0.37 |
| CC(C)C[C@H](NC(=O)[C@H](Cc1ccccc1)NC(=O)c1cnccn1)B(O)O [BORTEZOMIB] | 88.79 | -1.44 | 55.77 | 84.27 | -3.57 | -1.28 | 70.02 | 89.20 | -1.51 |  |
